For the assay, the target named is T1, human TRPM8 (Homo sapiens, UniProt Q7Z2W7).
T1 construct: expressed in transfected cells; host or cells: Chinese hamster ovary (CHO) cells, T-REx tetracycline-inducible expression system (Invitrogen), co-transfected with pcDNA3.1 jellyfish aequorin
Briefly: Luminescence readout assay for measuring intracellular calcium (aequorin), hTRPM8 antagonism. The assay is classed as cell-based. To be noted: CHO cell line expressing human TRPM8 and aequorin; activation by icilin, L-menthol or cold buffer (table does not say which). On the procedure: Luminescence Readout Assay for Measuring Intracellular Calcium.
A stable Chinese hamster ovary cell line expressing human TRPM8 was generated using tetracycline inducible T-REx™ expression system from Invitrogen, Inc. (Carlsbad, Calif.). […] Twenty four hours before the assay, cells were seeded in 96-well plates and TRPM8 expression was induced with 0.5 μg/mL tetracycline. […] Potential antagonists were added 2.5 min prior to the addition of agonist, […], 100 µM L-menthol, or 1 min prior to the addition of cold buffer (<10° C.). The luminescence was measured by a CCD camera based FLASH-luminometer built by Amgen, Inc. A cooling device attached to FLASH luminometer was used for cold activation.
A general note: Calcium flux is commonly read through the fluorescence of an indicator in the cells.

T1 sequence (Q7Z2W7 whole entry): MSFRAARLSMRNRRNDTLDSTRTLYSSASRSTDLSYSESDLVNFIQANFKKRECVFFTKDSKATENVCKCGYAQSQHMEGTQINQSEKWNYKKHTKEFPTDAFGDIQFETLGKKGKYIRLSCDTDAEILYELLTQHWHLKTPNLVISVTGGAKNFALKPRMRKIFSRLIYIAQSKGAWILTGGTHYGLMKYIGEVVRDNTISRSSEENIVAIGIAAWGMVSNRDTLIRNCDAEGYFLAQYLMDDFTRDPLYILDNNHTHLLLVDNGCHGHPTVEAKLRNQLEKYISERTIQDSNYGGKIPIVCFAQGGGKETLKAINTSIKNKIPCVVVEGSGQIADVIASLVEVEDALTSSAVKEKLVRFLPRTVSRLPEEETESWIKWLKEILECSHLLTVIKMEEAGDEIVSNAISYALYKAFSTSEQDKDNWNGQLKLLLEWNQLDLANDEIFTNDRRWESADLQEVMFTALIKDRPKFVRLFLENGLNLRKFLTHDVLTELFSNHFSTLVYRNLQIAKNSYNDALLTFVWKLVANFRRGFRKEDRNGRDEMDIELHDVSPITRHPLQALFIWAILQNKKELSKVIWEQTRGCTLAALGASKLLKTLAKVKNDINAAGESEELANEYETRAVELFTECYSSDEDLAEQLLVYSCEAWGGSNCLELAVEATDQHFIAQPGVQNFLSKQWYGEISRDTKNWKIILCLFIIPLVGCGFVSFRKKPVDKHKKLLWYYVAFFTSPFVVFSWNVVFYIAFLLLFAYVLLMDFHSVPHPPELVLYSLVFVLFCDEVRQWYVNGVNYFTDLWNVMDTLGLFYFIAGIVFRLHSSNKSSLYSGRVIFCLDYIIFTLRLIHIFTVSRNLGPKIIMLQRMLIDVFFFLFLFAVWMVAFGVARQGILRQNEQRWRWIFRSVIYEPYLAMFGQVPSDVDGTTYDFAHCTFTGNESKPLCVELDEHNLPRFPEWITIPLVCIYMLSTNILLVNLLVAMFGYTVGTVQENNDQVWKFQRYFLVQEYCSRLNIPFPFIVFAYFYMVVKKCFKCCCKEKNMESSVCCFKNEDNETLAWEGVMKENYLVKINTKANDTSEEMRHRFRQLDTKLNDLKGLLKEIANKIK

A word on the IC50: it is the concentration that gives 50% inhibition. Consider `COc1cccc(NC(=O)N[C@@H](c2ccc(C(F)(F)F)cc2)c2ncccc2C(F)(F)F)c1` [Example 52, (S)-1-(3-methoxy-phenyl)-3-((4-(trifluoro-methyl)-phenyl)(3-(trifluoro-methyl)-pyridin-2-yl)-methyl)urea (2,2,2-trifluoro-acetate)], for which the IC50 is 0.061 µM.

Consider `CS(=O)(=O)c1cccc(NC(=O)N[C@@H](c2ccc(C(F)(F)F)cc2)c2ncccc2C(F)(F)F)c1` [Example 53, (S)-1-(3-(methylsulfonyl)phenyl)-3-((4-(trifluoro-methyl)-phenyl)(3-(trifluoro-methyl)-pyridin-2-yl)-methyl)urea], for which the IC50 is 0.05 µM. With `O=C(NC1CCCOC1)N[C@@H](c1ccc(C(F)(F)F)cc1)c1ncccc1C(F)(F)F` (stereo partly drawn) [Example 54, 1-(tetrahydro-2H-pyran-3-yl)-3-((S)-(4-(trifluoro-methyl)-phenyl)(3-(trifluoro-methyl)-pyridin-2-yl)-methyl)urea] the figure was 0.397 µM; with `Cc1noc(C)c1NC(=O)N[C@@H](c1ccc(C(F)(F)F)cc1)c1ncccc1C(F)(F)F` [Example 55, (S)-1-(3,5-dimethylisoxazol-4-yl)-3-((4-(trifluoro-methyl)-phenyl)(3-(trifluoro-methyl)-pyridin-2-yl)-metyl)urea], 0.05 µM. For `O=C(NC1CCOC1)N[C@@H](c1ccc(C(F)(F)F)cc1)c1ncccc1C(F)(F)F` (stereo partly drawn) [Example 56, 1-(tetrahydrofuran-3-yl)-3-((S)-(4-(trifluoro-methyl)-phenyl)(3-(trifluoro-methyl)-pyridin-2-yl)-methyl)urea], the IC50 was found to be 0.676 µM. Take `O=C(Nc1cncnc1)N[C@@H](c1ccc(C(F)(F)F)cc1)c1ncccc1C(F)(F)F` [Example 57, (S)-1-(pyrimidin-5-yl)-3-((4-(trifluoro-methyl)-phenyl)(3-(trifluoro-methyl)-pyridin-2-yl)-methyl)urea]: the IC50 came out at 0.167 µM. Turning to `O=C(Nc1ccc2ncccc2c1)N[C@@H](c1ccc(C(F)(F)F)cc1)c1ncccc1C(F)(F)F` [Example 58, (S)-1-(quinolin-6-yl)-3-((4-(trifluoro-methyl)-phenyl)(3-(trifluoro-methyl)-pyridin-2-yl)-methyl)urea], the IC50 came to 0.562 µM.

As for `O=C(Nc1cnc2ccccc2c1)N[C@@H](c1ccc(C(F)(F)F)cc1)c1ncccc1C(F)(F)F` [Example 59, (S)-1-(quinolin-3-yl)-3-((4-(trifluoro-methyl)-phenyl)(3-(trifluoro-methyl)-pyridin-2-yl)-methyl)urea], the IC50 is 0.64 µM. With `O=C(Nc1ccnc2ccccc12)N[C@@H](c1ccc(C(F)(F)F)cc1)c1ncccc1C(F)(F)F` [Example 60, (S)-1-(quinolin-4-yl)-3-((4-(trifluoro-methyl)-phenyl)(3-(trifluoro-methyl)-pyridin-2-yl)-methyl)urea] the figure was 0.182 µM; with `CC(C)(C)Cc1cccnc1[C@@H](NC(=O)Nc1cccnc1)c1ccc(C(F)(F)F)cc1` [Example 62], 1.93 µM. The value for `O=C(Nc1c(Br)cc(F)cc1Br)N[C@@H](c1ccc(C(F)(F)F)cc1)c1ncccc1C(F)(F)F` [Example 63, (S)-1-(2,6-dibromo-4-fluorophenyl)-3-((4-(trifluoro-methyl)-phenyl)(3-(trifluoro-methyl)-pyridin-2-yl)-methyl)urea (2,2,2-trifluoro-acetate)] was 0.866 µM; that for `O=C(NCC1CCS(=O)(=O)C1)N[C@@H](c1ccc(C(F)(F)F)cc1)c1ncccc1C(F)(F)F` (stereo partly drawn) [Example 64, 1-((3- Sulfonylcyclopentyl)-methyl)-3-((S)-(4-(trifluoro-methyl)-phenyl)(3-(trifluoro-methyl)-pyridin-2-yl)-methyl)urea (2,2,2-trifluoro-acetate)] was 5.65 µM; that for `CC(C)[C@H](C)NC(=O)N[C@@H](c1ccc(C(F)(F)F)cc1)c1ncccc1C(F)(F)F` [Example 65, 1-((S)-3-methylbutan-2-yl)-3-((S)-(4-(trifluoro-methyl)-phenyl)(3-(trifluoro-methyl)-pyridin-2-yl)-methyl)urea (2,2,2-trifluoro-acetate)] was 0.141 µM.

As for `CCOC(=O)CCNC(=O)N[C@@H](c1ccc(C(F)(F)F)cc1)c1ncccc1C(F)(F)F` [Example 66, (S)-ethyl 3-(3-((4-(trifluoro-methyl)-phenyl)(3-(trifluoro-methyl)-pyridin-2-yl)-methyl)-ureido)-propanoate (2,2,2-trifluoro-acetate)], the IC50 amounted to 0.905 µM. For the compound `O=C(NC(=O)c1ccccc1)N[C@@H](c1ccc(C(F)(F)F)cc1)c1ncccc1C(F)(F)F` [Example 67, (S)-N-((4-(trifluoro-methyl)-phenyl)(3-(trifluoro-methyl)-pyridin-2-yl)-methylcarbamoyl) benzamide (2,2,2-trifluoro-acetate)], the IC50 was found to be 0.352 µM. Take `CCOC(=O)CCCNC(=O)N[C@@H](c1ccc(C(F)(F)F)cc1)c1ncccc1C(F)(F)F` [Example 68, (S)-ethyl 4-(3-((4-(trifluoro-methyl)-phenyl)(3-(trifluoro-methyl)-pyridin-2-yl)-methyl)-ureido)-butanoate (2,2,2-trifluoro-acetate)]: the IC50 was found to be 0.881 µM. For `Cc1noc(-c2ccccc2)c1NC(=O)N[C@@H](c1ccc(C(F)(F)F)cc1)c1ncccc1C(F)(F)F` [Example 69, (S)-1-(3-methyl-5-phenylisoxazol-4-yl)-3-((4-(trifluoro-methyl)-phenyl)(3-(trifluoro-methyl)-pyridin-2-yl)-methyl)urea (2,2,2-trifluoro-acetate)], the concentration for half-maximal inhibition (IC50) was determined as 0.777 µM. With `C[C@@H](NC(=O)N[C@@H](c1ccc(C(F)(F)F)cc1)c1ncccc1C(F)(F)F)c1ccccc1` [Example 70, 1-((R)-1-phenylethyl)-3-((S)-(4-(trifluoro-methyl)-phenyl)(3-(trifluoro-methyl)-pyridin-2-yl)-methyl)urea (2,2,2-trifluoro-acetate)] the figure was 0.781 µM. As to `CC(C)(C)c1ccccc1NC(=O)N[C@@H](c1ccc(C(F)(F)F)cc1)c1ncccc1C(F)(F)F` [Example 71, (S)-1-(tert-butylphenyl)-3-((4-(trifluoro-methyl)-phenyl)(3-(trifluoro-methyl)-pyridin-2-yl)-methyl)urea (2,2,2-trifluoro-acetate)], the IC50 turned out to be 5.71 µM. For `O=C(NCc1cccc(F)c1)N[C@@H](c1ccc(C(F)(F)F)cc1)c1ncccc1C(F)(F)F` [Example 72, (S)-1-(3-fluorobenzyl)-3-((4-(trifluoro-methyl)-phenyl)(3-(trifluoro-methyl)-pyridin-2-yl)-methyl)urea (2,2,2-trifluoro-acetate)], the IC50 worked out at 0.163 µM. With `O=C(NCc1ccccc1Cl)N[C@@H](c1ccc(C(F)(F)F)cc1)c1ncccc1C(F)(F)F` [Example 73, (S)-1-(2-chlorobenzyl)-3-((4-(trifluoro-methyl)-phenyl)(3-(trifluoro-methyl)-pyridin-2-yl)-methyl)urea (2,2,2-trifluoro-acetate)] the figure was 0.332 µM. With `COc1ccc(NC(=O)N[C@@H](c2ccc(C(F)(F)F)cc2)c2ncccc2C(F)(F)F)cc1OC` [Example 74, (S)-1-(3,4-dimethoxy-phenyl)-3-((4-(trifluoro-methyl)-phenyl)(3-(trifluoro-methyl)-pyridin-2-yl)-methyl)urea (2,2,2-trifluoro-acetate)] the figure was 0.112 µM.

These data come from patent publication US8778941B2, “TRPM8 antagonists and their use in treatments” (AMGEN Inc., priority 2011, dated 2014).
